Laboratory results: patent US11478558B2, “Prostate-specific membrane antigen targeted high-affinity agents for endoradiotherapy of prostate cancer” (The Johns Hopkins University, priority 2017, dated 2022)

Legend:
[1] = Blood analysis and necropsy after radiotherapy; format: in vivo, NOD/SCID mice
Procedure: (§1) A pilot treatment study using NOD/SCID mice (n=10 per group) bearing PSMA+ PC3 PIP tumors with a single intravenous dose of 111 MBq (3 mCi) of agents ^177Lu-PSMA-617, ^177Lu-1, ^177Lu-3 and ^177Lu-5 and the control group (with saline treatment) were performed (Table 8). Volume of the all control group mice reached >5-fold of their initial tumor volume within 14 days. Mouse euthanized for treated group within 4 weeks of post-injection was mainly due to sudden body weight loss and not related to tumor growth. […] The difference among treatment groups was statistically significant (P=0.002) by the log-rank test compared to the untreated group. […] After 8-weeks, three mice from each treated group were used for detailed blood analysis and necropsy study. All animals underwent radiotherapy study had normal creatinine (0.3-0.4 mg/dL) and blood urea nitrogen levels. […] Additionally, a significant lowering of platelet for all three treated mice from ^177Lu-PSMA-617 compared control group and other treated groups.
Significant and concerning changes were identified in testes, and lacrimal grands primarily (FIG. 25) for all treated groups. […] Parotid glands, usually adjacent to exorbital lacrimal gland, are conspicuously spared and there were mild changes in the group treated ^177Lu-PSMA-617. […] T lymphoblastic lymphoma is accelerated by irradiation and some carcinogens, and is associated with interactions of endogenous retroviruses/retroelements in NOD/SCID mouse strains. […] The cells are large up to 25 μm, with very large nuclei (for a mouse) usually 2-3 nucleoli, and a high mitotic rate. Testis and lacrimal gland degenerative changes indicate that this animal did receive a treatment similar to other treated mice.
(§2) Antitumor efficacy studies were performed in PC3 PIP flank tumor growth delay model to evaluate the therapeutic efficacy of a single dose intravenous injection of ^177Lu-L1, ^177Lu-L3, ^177Lu-L5 and ^177Lu-PSMA-617 vs. saline. This was a head-to-head comparison study and same batch of tumor-bearing mice and radioactivity. The study was commenced 14-18 days post-inoculation of the xenografts, when all the mice had tumor volume of about ˜60-85 mm^3 (Table 8). All the living mice were monitored for 8 weeks to monitor the growth delay. Mice body weight and tumor volume were monitored every 3 days throughout the experiment. Endpoint criteria defined by the institute ACUC was weight loss≥15%, a tumor volume>1800 mm^3, active ulceration of the tumor or abnormal behavior indicating pain or unease. After 8-weeks, three mice from each group were submitted for detail necropsy and blood analysis. Mice group treated with ^177Lu-1 and ^177Lu-PSMA-617 were continued to monitor until the endpoint. These definitions were also used for Kaplan-Meier analysis. The probability of reaching 5 times the initial tumor volume was characterized using Kaplan-Meier curves, and comparison was performed using the log-rank test. The formula used for calculation of tumor volume was V=width^2×length/2. Toxicity of the ^177Lu-treatment groups after 8-weeks and in healthy CD-1 (n=3) mice treated with 111 MBq was evaluated by pathologic examination at the Johns Hopkins Pathology Core facility with serum metabolic panel, blood counts, and full necropsy including detailed histopathology of kidneys, salivary glands and lacrimal glands.

[2] = system: PC3-ML-Luc-PSMA; assay: Treatment study in micrometastatic PC3-ML-Luc-PSMA model; format: in vivo, mouse; conditions: 37 MBq
Excerpt: (middle) Changes in bodyweight during the treatment study. (bottom) Kaplan-Meier survival curve for treatment study in micrometastatic PC3-ML-Luc-PSMA model, median survival for 51 days (untreated) vs 52 days for ^177Lu-PSMA-617 (37 MBq) and 56 days for 225Ac-1 (37 kBq) and 79 days for 225Ac-1 (74 kBq);

[3] = system: PSMA+ PC3 PIP tumors; assay: Radiopharmaceutical therapy in PC3 PIP flank tumor growth delay model; format: in vivo, NOD/SCID mice
Procedure: as §1
Median survival for the ^177Lu-PSMA-617 was 133 days vs. 234 days for ^177Lu-1.
The remaining treated mice survived tumor-free for 10 months and were evaluated for toxicity.
as §2

[4] = system: PSMA(+) PC3 PIP and PSMA(−) PC3 flu tumor xenografts; assay: Biodistribution of 177Lu compounds (Example 5); conditions: 3 h post-injection
[5] = system: PSMA(−) PC3 flu cells; assay: Cell uptake in PSMA(−) PC3 flu cells; format: cell-based, human
[6] = system: PSMA(+) PC3 PIP cells; assay: Cell uptake, cell surface binding and internalization in PSMA(+) PC3 PIP cells; format: cell-based, human
[7] = 111 MBq (3 mCi), after eight weeks, n=3

O=C([O-])CN1CCN(CC(=O)[O-])CCN(CC(=O)NCC2CCC(C(=O)N[C@@H](Cc3ccc4ccccc4c3)C(=O)NCCCC[C@H](NC(=O)N[C@@H](CCC(=O)O)C(=O)O)C(=O)O)CC2)CCN(CC(=O)[O-])CC1.[177Lu+3] (stereo partly shown) [^177Lu-PSMA-617, reference compound]
Albumin [1, 7]: 2.9 ± 0.2 g/dL | Blood urea nitrogen [1, 7]: 23.3 ± 2.5 mg/dL | Hematocrit [1, 7]: 42.9 ± 4.5% | Hemoglobin [1, 7]: 12.8 ± 1.0 g/dL | Lymphocytes [1, 7]: 0.7 ± 0.1 K/μL | Mean Corpuscular Value(MCV) [1, 7]: 52.2 ± 1.6 fL | Neutrophils [1, 7]: 3.5 ± 3.8 K/μL | Platelets [1, 7]: 916.0 ± 141.6 K/μL | Red blood cells [1, 7]: 8.2 ± 0.7 M/μL | Total protein [1, 7]: 5.5 ± 0.5 g/dL | White blood cells [1, 7]: 5.05 ± 4.1 K/μL | H&E pathology of testis ([1]; 111 MBq, after 8 weeks): most significant changes in testis | neutrophil counts ([1]; 111 MBq, after 8 weeks): up to 3.5±3.8 K/mL | median survival [2]: 52 days | Median survival After 8 weeks post-treatment ([3]; 111 MBq): Not reached | Tumors above stated relative tumor growth after week 8 post-treatment (Vt/V0) ([3]; 111 MBq): one tumor > 4 | median survival ([3]; 111 MBq, followed to predefined end-point): 133 days | Tumor disappear (number of mice) ([3]; 111 MBq, week 8 post-treatment): disappear 5 | Average final body weight ([3]; single i.v. dose 111 MBq (3 mCi)): 24.6 ± 3.6 gram | Kidney uptake [4]: 9.81±6.54 % ID/g | Cell uptake PC3 flu ([5]; 1 h): 0.1 ± 0.01 % incubated dose per 1 x 10^6 cells | Cell uptake PC3 flu ([5]; 2 h): 0.1 ± 0.0 % incubated dose per 1 x 10^6 cells | Cell uptake PC3 flu ([5]; 4 h): 0.1 ± 0.06 % incubated dose per 1 x 10^6 cells | Cell uptake PC3 flu ([5]; 24 h): 0.1 ± 0.01 % incubated dose per 1 x 10^6 cells | Cell uptake PC3 PIP ([6]; 1 h): 42.2 ± 0.80 % incubated dose per 1 x 10^6 cells | PC3 PIP cell Int (internalization) ([6]; 1 h): 18.8 ± 1.2 % incubated dose per 1 x 10^6 cells | Blockade PC3 PIP ([6]; 1 h, ZJ43 10 μM): 0.1 ± 0.0 % incubated dose per 1 x 10^6 cells | total uptake within the PSMA(+) PC3 PIP cells ([6]; 1 h to 24 h): ~40 % of the incubated dose | Cell uptake PC3 PIP ([6]; 2 h): 44.6 ± 1. % incubated dose per 1 x 10^6 cells | PC3 PIP, line without name (position of cell internalization) ([6]; 2 h): 21.1 ± 0.9 % incubated dose per 1 x 10^6 cells | Cell uptake PC3 PIP ([6]; 4 h): 47.6 ± 1.13 % incubated dose per 1 x 10^6 cells | PC3 PIP cell int (internalization) ([6]; 4 h): 26.1 ± 1.0 % incubated dose per 1 x 10^6 cells | Cell uptake PC3 PIP ([6]; 24 h): 54.2 ± 0.21 % incubated dose per 1 x 10^6 cells | PC3 PIP cell int (internalization) ([6]; 24 h): 26.4 ± 0.8 % incubated dose per 1 x 10^6 cells
